Molecules are shown by their SMILES.

In experiment [1] the target is T1, human β-Secretase (sBACE-Fc) (Homo sapiens (Human), UniProt P56817). Nature of the experiment: Diluted TR-FRET assay. In kind it is biochemical. The note with it: diluted TR-FRET assay: 50 times less enzyme, 6.5 h reaction time at r.t.; read-out: IC50 in TR-FRET assay (IC50 from the diluted FRET assay). Here is the method:
(§1) The cDNA for the soluble part of the human β-Secretase (AA 1-AA 460) was cloned using the ASP2-Fc10-1-IRES-GFP-neoK mammalian expression vector. The gene was fused to the Fc domain of IgG1 (affinity tag) and stably cloned into HEK 293 cells.
(§2) The enzyme (truncated form) was diluted to 6 μg/mL (stock 1.3 mg/mL) and the TruPoint BACE1 Substrate to 200 nM (stock 120 μM) in reaction buffer (NaAcetate, chaps, triton x-100, EDTA pH4.5). Enzyme and compound in dimethylsulphoxide (final DMSO concentration 5%) was mixed and pre-incubated for 10 minutes at RT. Substrate was then added and the reaction was incubated for 15 minutes at RT. The reaction was stopped with the addition of 0.35 vol Stop solution (NaAcetate, pH 9). The fluorescence of the product was measured on a Victor II plate reader with excitation wavelengths of 340-485 nm and emission wavelengths of 590-615 nm. The final concentration of the enzyme was 2.7 μg/ml; the final concentration of substrate was 100 nM (Km of ˜250 nM). The dimethylsulphoxide control, instead of test compound, defined the 100% activity level and 0% activity was defined by wells lacking enzyme (replaced with reaction buffer) or by a saturating dose of a known inhibitor, 2-amino-6-[3-β-methoxyphenyl)phenyl]-3,6-dimethyl-5H-pyrimidin-4-one.
Compounds with a high affinity were further tested in a diluted TR-FRET assay, conditions as described above for the TR-FRET assay, but with 50 times less enzyme and a 6.5 h long reaction time at r.t. in the dark.
(TR-FRET usually uses a lanthanide donor and a delayed reading to cut background.)

For experiment [2], the system named is sAPPβ release in SH-SY5Y cells. Description: sAPPβ release assay. The experiment is classed as cell-based. The note with it: 17 h incubation. The protocol: SH-SY5Y cells were cultured in DMEM/F-12 with Glutamax, 10% FCS and 1% non-essential amino acids and cryopreserved and stored at −140° C. at a concentration of 7.5−9.5×10^6 cells per vial. […] The cell plates were then incubated for 7-24 h at 37° C., 5% CO2. The cell medium was removed, followed by addition of 30 μL compound diluted in DMEM/F-12 with Glutamax, 10% FCS, 1% non-essential amino acids and 1% PeSt to a final conc. of 1% DMSO. The compounds were incubated with the cells for 17 h (overnight) at 37° C., 5% CO2. Meso Scale Discovery (MSD) plates were used for the detection of sAPPβ release. MSD sAPPβ plates were blocked in 1% BSA in Tris wash buffer (40 μL/well) for 1 h on shake at r.t. and washed 1 time in Tris wash buffer (40 μL/well). 20 μL of medium was transferred to the pre-blocked and washed MSD sAPPβ microplates, and the cell plates were further used in an ATP assay to measure cytotoxicity. The MSD plates were incubated with shaking at r.t. for 2 h and the media discarded. 10 μL detection antibody was added (1 nM) per well followed by incubation with shaking at r.t. for 2 h and then discarded. 40 μL Read Buffer was added per well and the plates were read in a SECTOR Imager.

The target in experiment [3] is T1, human β-Secretase (sBACE-Fc). Description: TR-FRET assay. Particulars: standard TR-FRET assay, 15 minutes reaction at RT. In kind it is biochemical. Here is the method: The β-secretase enzyme used in the TR-FRET is prepared as follows:
as §1, §2

T1 sequence (P56817 22-460): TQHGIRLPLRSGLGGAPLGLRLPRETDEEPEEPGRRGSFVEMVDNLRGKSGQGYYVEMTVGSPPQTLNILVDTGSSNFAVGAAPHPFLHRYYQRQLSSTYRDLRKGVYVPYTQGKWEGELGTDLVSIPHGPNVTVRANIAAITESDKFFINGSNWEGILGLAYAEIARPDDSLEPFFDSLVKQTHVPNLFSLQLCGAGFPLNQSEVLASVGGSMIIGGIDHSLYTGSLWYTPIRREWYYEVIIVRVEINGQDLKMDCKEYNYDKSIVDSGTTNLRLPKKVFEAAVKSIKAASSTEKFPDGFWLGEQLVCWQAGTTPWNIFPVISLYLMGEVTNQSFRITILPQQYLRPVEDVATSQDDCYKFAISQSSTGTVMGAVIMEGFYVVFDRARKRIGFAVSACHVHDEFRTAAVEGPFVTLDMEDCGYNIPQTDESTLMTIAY

On to `CO[C@H]1CC[C@]2(CC1)Cc1ccc(OCC3CC3)cc1[C@@]21N=C(C)C(N)=N1` (single isomer, unassigned; isomer 1) [4, isomer 1], for which the IC50 (as a rule, the concentration needed to halve the response being measured) in experiment [1] turned out to be 3.7 nM; in experiment [2] it was 0.9 nM. In experiment [2], `CO[C@H]1CC[C@]2(CC1)Cc1ccc(OCC3CCC3)cc1[C@@]21N=C(C)C(N)=N1` (single isomer, unassigned; isomer 1) [7, isomer 1] gave an IC50 of 1.3 nM. `CO[C@H]1CC[C@]2(CC1)Cc1ccc(OCC3CC3)cc1[C@]21N=C(C)C(N)=N1` (single isomer, unassigned; isomer 2) [4, isomer 2] registered an IC50 in experiment [3] greater than 5000 nM. `CO[C@H]1CC[C@]2(CC1)Cc1ccc(OCC3(C)CC3)cc1C21N=C(C)C(N)=N1` (stereo partly drawn) [Example 1, (1r,4r)-4-Methoxy-5″-methyl-6′-[(1-methylcyclopropyl)methoxy]-3′H-dispiro[cyclohexane-1,2′-indene-1′,2″-imidazol]-4″-amine]: the IC50 in experiment [1] was found to be 18 nM; in experiment [2] (Homo sapiens), 2.8 nM. As for `CO[C@H]1CC[C@]2(CC1)Cc1ccc(OCC3CC(F)(F)C3)cc1C21N=C(C)C(N)=N1` (stereo partly drawn) [Example 2, (1r,4r)-6′-[(3,3-Difluorocyclobutyl)methoxy]-4-methoxy-5″-methyl-3′H-dispiro[cyclohexane-1,2′-indene-1′,2″-imidazol]-4″-amine], the figures for the IC50 in experiment [2] (Homo sapiens) and in experiment [3] were 8.4 nM and 50 nM, respectively. For the compound `CO[C@H]1CC[C@]2(CC1)Cc1ccc(OCC3CC3)cc1C21N=C(C)C(N)=N1` (stereo partly drawn) [Example 3, (1r,4r)-6′-(Cyclopropylmethoxy)-4-methoxy-5″-methyl-3′H-dispiro[cyclohexane-1,2′-indene-1′,2″-imidazol]-4″-amine], the IC50 in experiment [1] was 7.4 nM; in experiment [2] (Homo sapiens) it was 1.6 nM. For `CO[C@H]1CC[C@]2(CC1)Cc1ccc(OCC3CC3(F)F)cc1C21N=C(C)C(N)=N1` (stereo partly drawn) [Example 5, (1r,4r)-6′-[(2,2-Difluorocyclopropyl)methoxy]-4-methoxy-5″-methyl-3′H-dispiro[cyclohexane-1,2′-indene-1′,2″-imidazol]-4″-amine] the same measures were 13 nM and 2.3 nM. `CO[C@H]1CC[C@]2(CC1)Cc1ccc(OCC3CCC3)cc1C21N=C(C)C(N)=N1` (stereo partly drawn) [Example 6, (1r,4r)-6′-(Cyclobutylmethoxy)-4-methoxy-5″-methyl-3′H-dispiro[cyclohexane-1,2′-indene-1′,2″-imidazol]-4″-amine] yielded an IC50 in experiment [2] (Homo sapiens) of 1.5 nM. Take `CO[C@H]1CC[C@]2(CC1)Cc1ccc(OCCC3CC3)cc1C21N=C(C)C(N)=N1` (stereo partly drawn) [Example 8, (1r,4r)-6′-(2-Cyclopropylethoxy)-4-methoxy-5″-methyl-3′H-dispiro[cyclohexane-1,2′-indene-1′,2″-imidazol]-4″-amine]: the figures for the half-inhibitory concentration (IC50) in experiment [1] and in experiment [2] (Homo sapiens) were 3.7 nM and 0.8 nM, respectively.

(Values after US9000185B2, “Cycloalkyl ether compounds and their use as BACE inhibitors” (AstraZeneca AB, priority 2012, dated 2015).)
